The record followed here is article PMC5829251, “NAD^+ analog reveals PARP-1 substrate-blocking mechanism and allosteric communication from catalytic center to DNA-binding domains” (Nature Communications, 2018).

One experiment concerns the target T1, full-length PARP-1 (Homo sapiens, UniProt P09874).
T1 construct: Full-length PARP-1 WT (residues 1–1014) was cloned in pET28 vector; made in house; host or cells: E. coli
The experiment is described as follows: Colorimetric assay of full-length PARP-1 DNA-dependent activity. It is filed as biochemical. The settings on record: 20 nM PARP-1, 40 nM DNA, 50 μM NAD+. The method, then: The colorimetric assay was performed as described, [28] using 20 nM of protein and 40 nM DNA (18-bp duplex). A mixture of NAD^+ and biotinylated NAD^+ (bio-NAD^+) was used at a 99:1 ratio and a final concentration of 50 µM. Reactions were allowed to proceed for 5 min before quenching. Three independent experiments were performed.

A further experiment addresses T2, PARP-1 CAT domain WT (Homo sapiens, UniProt P09874).
T2 construct: The PARP-1 CAT WT (residues 661–1014) was cloned in pET28 vector; made in house; host or cells: E. coli
The experiment is described as follows: Differential scanning fluorimetry (DSF), PARP-1 CAT WT. The experiment is classed as binding. Conditions: for TM: Figure 1e, CAT WT 5 μM, TM without compound 51.58, in °C (unit assumed). The procedure: (§1) DSF experiments were performed as described, [13] using 5 µM protein, 2.5 µM DNA when indicated and various concentrations of compound (BAD, carba-NAD^+, benzamide, and ADP-ribose) as indicated in Fig. 1 and Fig. 3. Experiments were performed on a Roche LightCycler 480 RT-PCR. Reactions including DNA were performed with a 26- or 28-base pair (bp) unphosphorylated oligonucleotide for PARP-1, a 28-bp 5´-phosphorylated (5´P) oligonucleotide for PARP-2, and a 47-bp oligonucleotide including a central 5´P nick for PARP-3^13 in the following buffer: 25 mM Hepes pH 8.0, 150 mM NaCl, 1 mM EDTA, and 0.1 mM TCEP. Reactions with PARP-3 were conducted at lower ionic strength to allow binding to DNA as described (25 mM Hepes pH 8.0, 50 mM NaCl, 1 mM EDTA and 0.1 mM TCEP)[13]. ΔTM values were calculated by subtracting the TM determined for the protein in the absence of compound from the TM determined in the presence of compound. Experiments were performed in triplicate and a Boltzmann sigmoid was fit to the data to determine the TM values (KaleidaGraph).

The target in another experiment is T3, PARP-1 CAT ΔHD (Homo sapiens, UniProt P09874).
T3 construct: a pET28 construct coding for PARP-1 residues 661-1011; made in house; host or cells: E. coli
T3 sequence (P09874 with tags, fused parts or gaps): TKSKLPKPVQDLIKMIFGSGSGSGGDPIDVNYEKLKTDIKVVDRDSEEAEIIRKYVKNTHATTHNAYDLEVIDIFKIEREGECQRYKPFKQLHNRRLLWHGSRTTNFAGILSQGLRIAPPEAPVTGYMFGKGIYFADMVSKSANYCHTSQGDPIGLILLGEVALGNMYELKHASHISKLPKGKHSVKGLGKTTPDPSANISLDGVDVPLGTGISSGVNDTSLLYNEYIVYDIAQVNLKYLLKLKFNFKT
The experiment in a line: DSF, PARP-1 CAT ΔHD. The experiment is classed as binding. Conditions: for TM: Figure 1e, CAT ΔHD 5 μM, TM without compound 41.26, in °C (unit assumed). The procedure: as §1

Setting [1] is: 5 μM protein, various amounts of compound.

T2 sequence (P09874 661-1014): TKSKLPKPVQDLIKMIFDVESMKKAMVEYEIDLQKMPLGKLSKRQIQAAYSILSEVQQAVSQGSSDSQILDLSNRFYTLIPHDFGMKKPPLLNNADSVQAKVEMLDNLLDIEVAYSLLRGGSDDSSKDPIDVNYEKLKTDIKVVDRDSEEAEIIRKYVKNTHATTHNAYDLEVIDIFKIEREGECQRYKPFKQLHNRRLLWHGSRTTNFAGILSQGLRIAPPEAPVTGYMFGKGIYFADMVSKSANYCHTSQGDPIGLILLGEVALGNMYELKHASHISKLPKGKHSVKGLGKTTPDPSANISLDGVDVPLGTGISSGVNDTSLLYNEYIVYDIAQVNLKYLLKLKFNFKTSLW
T1 sequence (P09874 whole entry, the tested form may be a part): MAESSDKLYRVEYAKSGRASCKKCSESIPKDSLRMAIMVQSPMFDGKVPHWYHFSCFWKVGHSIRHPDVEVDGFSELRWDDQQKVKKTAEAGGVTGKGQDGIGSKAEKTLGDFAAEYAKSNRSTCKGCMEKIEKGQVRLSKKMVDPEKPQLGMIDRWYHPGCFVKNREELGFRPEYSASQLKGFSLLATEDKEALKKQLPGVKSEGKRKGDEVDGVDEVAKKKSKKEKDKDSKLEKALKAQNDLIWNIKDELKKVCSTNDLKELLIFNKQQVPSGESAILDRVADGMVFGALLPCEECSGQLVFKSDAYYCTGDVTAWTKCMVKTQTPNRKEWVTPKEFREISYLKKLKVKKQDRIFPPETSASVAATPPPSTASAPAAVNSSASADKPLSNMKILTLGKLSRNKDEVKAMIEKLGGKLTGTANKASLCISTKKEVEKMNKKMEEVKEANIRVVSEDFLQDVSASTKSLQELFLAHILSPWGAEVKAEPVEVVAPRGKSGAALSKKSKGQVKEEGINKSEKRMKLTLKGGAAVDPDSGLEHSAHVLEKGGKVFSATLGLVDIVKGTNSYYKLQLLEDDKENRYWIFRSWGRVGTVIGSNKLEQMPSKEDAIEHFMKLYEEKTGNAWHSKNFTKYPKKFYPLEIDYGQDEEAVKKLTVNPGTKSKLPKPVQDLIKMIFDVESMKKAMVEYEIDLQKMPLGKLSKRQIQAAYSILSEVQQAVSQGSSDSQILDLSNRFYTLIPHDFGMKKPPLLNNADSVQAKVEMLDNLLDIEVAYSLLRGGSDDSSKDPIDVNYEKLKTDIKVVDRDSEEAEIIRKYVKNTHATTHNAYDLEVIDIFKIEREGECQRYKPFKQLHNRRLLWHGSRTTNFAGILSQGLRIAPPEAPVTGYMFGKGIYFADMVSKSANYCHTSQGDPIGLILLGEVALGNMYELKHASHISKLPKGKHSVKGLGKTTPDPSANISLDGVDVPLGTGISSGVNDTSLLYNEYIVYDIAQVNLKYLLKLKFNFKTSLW

On to `Nc1ncnc2c1ncn2C1OC(COP(=O)(O)OP(=O)(O)OCC2OC(O)C(O)C2O)C(O)C1O` (centres unmarked) [ADP-ribose], for which the “inhibition of DNA damage-dependent activity of full-length PARP-1” value against full-length PARP-1 is reported as “does not inhibit the reaction”. The “change of apparent TM of PARP-1 CAT WT (evidence of binding)” value at PARP-1 CAT domain WT (setting [1]) is “no evidence of binding”. Moreover, the TM stood at 51.52 at PARP-1 CAT domain WT (compound 25 µM); 51.61 on PARP-1 CAT domain WT (compound 150 µM); 51.56 on PARP-1 CAT domain WT (compound 750 µM); 51.53 on PARP-1 CAT domain WT (compound 1500 µM); 41.46 at PARP-1 CAT ΔHD (compound 25 µM); 41.57 at PARP-1 CAT ΔHD (compound 150 µM). The TM at PARP-1 CAT ΔHD (compound 750 µM) was 41.43; on PARP-1 CAT ΔHD (compound 1500 µM), 41.68. Further, the “change of TM of CAT ΔHD (evidence of binding)” value on PARP-1 CAT ΔHD (setting [1]) is on record as “no evidence of binding”.
